The structures appear in SMILES notation.

Results on five molecules are retold here after patent US9682988B2, “Solid salt form of α-6-mPEG6-O-hydroxycodone as opioid agonists and uses thereof” (Nektar Therapeutics, priority 2012, dated 2017).

What all share (type): physicochemical
Series [1] can be described thus: Particle size distribution (Malvern Mastersizer). The settings on record: ethyl acetate dispersant; phosphate salt. How it is done:
(§1) 27.22 g of freebase alpha-6-mPEG6-O-hydroxycodone was added to a 250 mL jacketed flask. The flask was equipped with a nitrogen inlet, mechanical stirrer and temperature probe connected to a digital read-out. 163 mL of tBME (methyl tert-butyl ether):heptane (5:1 vol:vol) was added to make a homogeneous solution at 15° C. Aqueous phosphoric acid (3103 μL of 85+%) was added over 1 hr at 10 minutes intervals. During the first addition, the initially formed solids were long strings and agitation helped to transform fine solid in matter of seconds. Exothermic temperature spikes occurred; the range of these increases was 8-10° C. observed during the initial 5 added portions. During the 6th and 7th added portion the temperature spike was reduced substantially to increments of a Celsius degree. After 2 hours the slurry was filtered. The filtration rate was instantaneous with no solvent retention. The wet cake was washed with 90 mL tBME (2×45 mL) and set to dry at ambient temperature overnight inside a vacuum oven. The isolated 30.57 g of white solid (96.5% isolated yield) was filtered. The solid after delumping with spatula was free flowing. The % LOD of the wet cake was at 43.2%. HPLC purity was at 98.6%. Bulk density was 0.3276 g/mL, tap density was 0.3931 g/mL, and the Hausner ratio was 1.20. XRPD conformed to the salt prepared according to Example 3. FIG. 16 depicts various XRPD scans for the salt prepared according to Example 7 on a 30 g, 100 g, and 520 g scale and a salt prepared according to Example 3 on a 100 g scale. XRPD patterns were obtained using a Bruker D8 Advance equipped with a Cu Kα radiation source (1.54 Å), a 9-position sample holder and a LYNXEYE Super Speed Detector. Typically, the duration of each scan was 180 seconds and the 2θ range was 4 to 40°. Samples were placed on zero-background, silicon plate holders. DSC data were collected using a TA Instruments Q10 DSC. Typically, samples (˜2 mg) were placed in hermetic alodined aluminum sample pans and scanned from 30 to 350° C. at a rate of 10° C./min under a nitrogen purge of 50 mL/min. A Malvern Hydro 2000 SM (A) Mastersizer was used for particle size analysis data using a generic method. Ethyl acetate was used as the dispersant, with a pump speed of 2000 rpm, obstruction of 10-15%. The addition style included direct addition of the solid to the dispersant until desired obstruction is achieved. The number of measurements was a minimum of two. For PSD analysis, a sample was taken from the bulk of the solid. FIGS. 13, 14, and 15 are plots of the PSD analysis for the 30 g, 100 g, and 520 g lots respectively.

Series [2] in a line: Bulk and tap density of the solid salt. How it is done:
as §1

Series [3] can be described thus: Water vapor sorption. The settings on record: phosphate salt. The procedure: Moisture sorption/desorption data were collected on a VTI SGA-1 00 Vapor Sorption Analyzer. Sorption and desorption data were collected over a range of 5% to 95% relative humidity (RH) at 10% RH intervals under a nitrogen purge. Samples were not dried prior to analysis. Equilibrium criteria used for analysis were less than 0.0100% weight change in 5 minutes, with a maximum equilibration time of 3 hours if the weight criterion was not met. Data were not corrected for the initial moisture content of the samples. NaCl and PVP were used as calibration standards.

The nature of series [4]: Description of the isolated solid (hygroscopicity). The settings on record: after drying under vacuum at ambient temperature. How it is done:
A solution of α-6-mPEG6-O-hydroxycodone was prepared in a mixture of methanol and tert-butyl methyl ether (2:1, 2 volumes) at 30° C. A solution of phosphoric acid (85% aqueous, 1.05 eq) was prepared in a mixture of methanol and tert-butyl methyl ether (2:1, 1.2 volumes) at 20° C. The solutions were combined, maintaining a temperature of 30-50° C., resulting in the formation of dissolved α-6-mPEG6-O-hydroxycodone phosphate. This salt solution was adjusted to 40° C., and gradually transferred over the course of 1-3 hours into a solution of heptanes and tert-butyl methyl ether (4:1, 14 volumes) maintained at 45° C. During the transfer, α-6-mPEG6-O-hydroxycodone phosphate precipitated from the combined streams. The resulting slurry was cooled to 20° C. and agitation was ceased, permitting the solids to settle. The supernate was decanted, and heptanes (6 volumes) were added to the solids. The solids were slurried for at least one hour at 30° C., after which the slurry was cooled to 20° C. Again agitation was ceased, the solids were allowed to settle, and the supernate was decanted. Fresh heptanes were added to the solids, which were again slurried for at least one hour at 30° C. The slurry was cooled to 20° C., filtered, and washed with fresh heptanes (2 volumes). […] The solid form prepared according to this Example has a melting point in the range of about 175-177° C. […]

Where [5] appears, read: listed as Alpha 6-mPEG6-O-Hydroxycodone Phosphate Salt.

Regarding `COCCOCCOCCOCCOCCOCCO[C@H]1CC[C@@]2(O)[C@H]3Cc4ccc(OC)c5c4[C@@]2(CCN3C)[C@H]1O5.O=P(O)(O)O` [30 g Lot, α-6-mPEG6-O-hydroxycodone phosphate salt], in series [1], the “Particle Size Distribution DV[10]” value was “DV[10] = 7 μm”, the “Particle Size Distribution DV[50]” value was “DV[50] = 47 μm” and the “Particle Size Distribution DV[90]” value was “DV[90] = 92 μm”. In series [2] (phosphate salt), the “Bulk Density” value was found to be 0.33 g/mL, the Hausner ratio stood at 1.18 and the “Tap Density” value is reported as 0.39 g/mL. The “Water Vapor Sorption (gain between 0-50% RH)” value in series [3] stood at 4.2%.

Turning to `COCCOCCOCCOCCOCCOCCO[C@H]1CC[C@@]2(O)[C@H]3Cc4ccc(OC)c5c4[C@@]2(CCN3C)[C@H]1O5.O=C(O)C(O)C(O)C(=O)O` [α-6-mPEG6-O-hydroxycodone D-tartrate], the “nature of the isolated solid” value in series [4] is listed as “deliquescent white powder”.

As to `COCCOCCOCCOCCOCCOCCO[C@H]1CC[C@@]2(O)[C@H]3Cc4ccc(OC)c5c4[C@@]2(CCN3C)[C@H]1O5.O=P(O)(O)O` [α-6-mPEG6-O-hydroxycodone phosphate], in series [2] (setting [5]), the “Bulk Density” value stood at 0.3276 g/mL, the Hausner ratio came out at 1.20 and the “Tap Density” value was 0.3931 g/mL. Besides, the “nature of the isolated solid” value in series [4] was “slightly waxy, hygroscopic powder”.

Regarding `COCCOCCOCCOCCOCCOCCO[C@H]1CC[C@@]2(O)[C@H]3Cc4ccc(OC)c5c4[C@@]2(CCN3C)[C@H]1O5.O=P(O)(O)O` [100 g Lot, α-6-mPEG6-O-hydroxycodone phosphate salt], in series [1], the “Particle Size Distribution DV[10]” value was “DV[10] = 9 μm”, the “Particle Size Distribution DV[50]” value was “DV[50] = 53 μm” and the “Particle Size Distribution DV[90]” value is “DV[90] = 109 μm”. Also, in series [2] (phosphate salt), the “Bulk Density” value is reported as 0.37 g/mL, the Hausner ratio was 1.30 and the “Tap Density” value amounted to 0.48 g/mL. In series [3], the “Water Vapor Sorption (gain between 0-50% RH)” value is on record as 4.1%.

Turning to `COCCOCCOCCOCCOCCOCCO[C@H]1CC[C@@]2(O)[C@H]3Cc4ccc(OC)c5c4[C@@]2(CCN3C)[C@H]1O5.O=P(O)(O)O` [520 g Lot, α-6-mPEG6-O-hydroxycodone phosphate salt], in series [1], the “Particle Size Distribution DV[10]” value is “DV[10] = 7 μm”, the “Particle Size Distribution DV[50]” value is “DV[50] = 47 μm” and the “Particle Size Distribution DV[90]” value was “DV[90] = 93 μm”. In series [2] (phosphate salt), the “Bulk Density” value amounted to 0.39 g/mL, the Hausner ratio is on record as 1.25 and the “Tap Density” value came to 0.49 g/mL. Moreover, the “Water Vapor Sorption (gain between 0-50% RH)” value in series [3] was 4.2%.
